Columns and labels:
EV71 [1] = assay: ELISA, EV71 binding to monosaccharide-PAA coated plate; set-up: species or system Enterovirus 71; details: OD450; for specific binding to EV71 (FIG. 1D): 10^6 PFU EV71, plate coated with monosaccharide-PAA, versus control without EV71
Procedure: ELISA was also performed to detect the binding activities between EV71 and monosaccharides in the present embodiment, and the process of ELISA of the present embodiment is similar to that of Embodiment 1.
(§1) In addition, specific bindings between different enteroviruses and monosaccharides were also detected. First, 10^6 PFU of enteroviruses, EV71, Coxsackievirus A16 (CA16), Coxsackievirus B3 (Cox B3, CB3), and Coxsackievirus B2 (Cox B2, CB2), were added in to a 96-well plate coated with glucose-PAA and galactose-PAA.

EV71 [2] = assay: ELISA, EV71 binding to galectin-1 coated plate; set-up: species or system Enterovirus 71
Procedure: Except the aforementioned lectins, the binding activity between EV71 and mammalian lectin such as galectin-1 was also detected in the present embodiment. First, a different amount of EV71 (10 fold serial dilution from 10^6 PFU to 10^4 PFU) was incubated in a 96-well plate coated with galectin-1.
It means that the monosaccharides such as glucose may first bind to EV71 during the formation of EV71 viral particles, and the monosaccharides bound on EV71 may further participate in the binding between EV71 and galactin-1.

CA16 = assay: ELISA, CA16 binding to galectin-1 coated plate; set-up: species or system Coxsackievirus A16; details: 10^6 PFU of virus, OD450
influenza virus (Flu) = assay: ELISA, influenza virus binding to galectin-1 coated plate; details: 10^6 PFU of virus, OD450
dengue virus (DV) = assay: ELISA, dengue virus binding to galectin-1 coated plate; details: 10^6 PFU of virus, OD450
Procedure: In addition, 106 PFU of different viruses including EV71, CA16, influenza virus (Flu) or dengue virus (DV) were added into a 96-well plate coated with galactin-1. Then, anti-EV71 antibody and HRP-conjugated goat anti-mouse IgG antibody were sequentially added into the 96-well plate.

EV71 [3] = assay: ELISA, biotin-labeled monosaccharide-PAA binding to EV71 captured on anti-EV71 antibody plate; set-up: species or system Enterovirus 71; details: OD450; for binding of EV71 to monosaccharide (FIG. 1A): 10^6 PFU of EV71, biotin-labeled monosaccharide-PAA, compared to control without viruses or 10^6 PFU Dengue viruses; for binding activity between EV71 and monosaccharide versus amount of EV71 (FIG. 1B): 10 fold serial dilution of EV71 from 10^6 PFU to 10^2 PFU
Procedure: Enzyme-linked immunosorbent assay (ELISA) was used to detect the binding activities between EV71 and monosaccharides in the present embodiment. First, EV71 was added into a 96-well plate (Genesis, Taiwan) and bound to anti-EV71 antibody coated on the 96-well plate. Then, biotin-labeled monosaccharide polymers, such as glucose-PAA (polyacrylamide), mannose-PAA, galactose-PAA, N-acetyl-galactosamine-PAA (GalNAc-PAA), and N-acetyl-glucosamine-PAA (GlcNAc-PAA) were added into the 96-well plate, and reacted with EV71 at room temperature.

[4] = system: Coxsackievirus A16 (CA16); assay: ELISA, CA16 binding to monosaccharide-PAA coated plate; details: 10^6 PFU; plate coated with glucose-PAA or galactose-PAA; OD450
Procedure: as §1

[5] = system: Coxsackievirus B3 (Cox B3, CB3); assay: ELISA, CB3 binding to monosaccharide-PAA coated plate; details: 10^6 PFU; plate coated with glucose-PAA or galactose-PAA; OD450
Procedure: as §1

[6] = system: Coxsackievirus B2 (Cox B2, CB2); assay: ELISA, CB2 binding to monosaccharide-PAA coated plate; details: 10^6 PFU; plate coated with glucose-PAA or galactose-PAA; OD450
Procedure: as §1

[7] = molecular target: EV71 binding to galectin-1 (Homo sapiens, UniProt P09382); assay: ELISA, competition of monosaccharides with EV71 binding to galectin-1; set-up: species or system Enterovirus 71; details: EV71 incubated with the sugar at different concentrations at 4° C. for 2 hours; galectin-1 coated plate
Procedure: ELISA was used to detect the competition between monosaccharides and EV71 or lectins. First, EV71 was incubated in a medium supplemented with galactose, glucose, N-acetyl galactosamines, sucrose, or mannose with different concentration (conc.) at 4° C. for 2 hours. […] It is because the monosaccharides bound on the EV71 may first bind to lectins, so the binding between lectins and EV71 may further be inhibited.

EV71 on SK-N-SH cells = assay: Plaque assay, EV71 replication on SK-N-SH cells with monosaccharides; type: cell-based, Enterovirus 71; details: EV71 incubated with 0.625 M, 0.125M, 0.25M sugar, 72 hours; for production of EV71 on SK-N-SH cells, virus titer (FIG. 4A): 1 hour at 37° C., no wash; for production of EV71 on SK-N-SH cells, absorption stage (FIG. 4B): unbound viruses washed away by PBS after 1 hour
Procedure: Plaque assay was used to understand the relation between the monosaccharides and the replication of EV71 in the present embodiment.
Host cells, SK-N-SH cells (2×10^5 cells/well), were seeded in a 24-well plate, and incubated for 16-18 hours to form a monolayer cell. SK-N-SH cells were infected with EV71, which was incubated with different concentrations of glucose, galactose or N-acetylgalactosamine (0.625 M, 0.125M, and 0.25M). After 1 hour incubation at 37° C., DMEM with 1.6% methylcellulose and 2% FBS was added to incubate at 37° C. for 72 hours.
First, SK-N-SH cells were infected with EV71, which were incubated with different concentrations of glucose, galactose or N-acetylgalactosamine (0.625 M, 0.125M, and 0.25M). After 1 hour incubation at 37° C., unbound viruses were washed away by PBS, DMEM with 1.6% methylcellulose and 2% FBS was added to incubate at 37° C. for 72 hours.
In addition, SK-N-SH cells were infected with EV71 in a glucose-containing medium. After 1 hour incubation at 37° C., viruses, which were unbound on the 24-well plate were washed away with PBS. Then, the infected host cells were incubated in a medium containing 0.25M glucose or galactose (supplemented with 1.6% methylcellulose and 2% FBS) at 37° C. for 72 hours.

Sequence of EV71 binding to galectin-1 (P09382 2-135 limits assumed): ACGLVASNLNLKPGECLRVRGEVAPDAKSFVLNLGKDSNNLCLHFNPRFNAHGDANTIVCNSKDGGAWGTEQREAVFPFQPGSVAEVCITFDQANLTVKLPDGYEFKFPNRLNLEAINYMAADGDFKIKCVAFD

Compound	specific binding to EV71 (FIG. 1D) (EV71 [1])	binding to galectin-1 of EV71 incubated in sugar-free medium (FIG. 2E) (EV71 [2]; 10^6 PFU EV71 incubated in glucose-free medium)	binding of galectin-1 to EV71 (FIG. 2D) (EV71 [2]; 10^6 PFU of virus, galectin-1 coated plate, OD450)	binding of EV71 to galectin-1 (FIG. 2C) (EV71 [2]; EV71 10 fold serial dilution from 10^6 PFU to 10^4 PFU, bound amount increases with EV71 added)	binding of galectin-1 to CA16 (FIG. 2D) (CA16)	binding of galectin-1 to influenza virus (FIG. 2D) (influenza virus (Flu))	binding of galectin-1 to dengue virus (FIG. 2D) (dengue virus (DV))	binding of EV71 to monosaccharide (FIG. 1A) (EV71 [3])	binding activity between EV71 and monosaccharide versus amount of EV71 (FIG. 1B) (EV71 [3])	binding activity to EV71 (FIGS. 1E, 1F) (EV71 [1]; 10^6 PFU, plate coated with glucose-PAA or galactose-PAA)	specific binding to CA16 (FIGS. 1E, 1F) [4]	binding activity to CB3 (FIGS. 1E, 1F) [5]	binding activity to CB2 (FIGS. 1E, 1F) [6]	effect on binding between EV71 and lectins (galectin-1) by competition (FIG. 3) [7]	production of EV71 on SK-N-SH cells, virus titer (FIG. 4A) (EV71 on SK-N-SH cells)	production of EV71 on SK-N-SH cells, absorption stage (FIG. 4B) (EV71 on SK-N-SH cells)
CC(=O)N[C@H]1C(O)O[C@H](CO)[C@@H](O)[C@@H]1O (some centres unmarked) [N-acetyl-glucosamine]	can specifically bind	–	–	–	–	–	–	–	–	–	–	–	–	–	–	–
galactin-1: mammalian lectin such as galectin-1, coated on 96-well plate	–	cannot bind	specifically binds	binds	specifically binds	does not bind	does not bind	–	–	–	–	–	–	–	–	–
O=C[C@H](O)[C@@H](O)[C@@H](O)[C@H](O)CO [galactose]	can specifically bind	–	–	–	–	–	–	can bind	enhanced as the amount of EV71 was increased	high binding activity	can specifically bind	do not show any binding activity	do not show any binding activity	partially inhibited	enhance the production of EV71	enhance the production of EV71
CC(=O)N[C@H]1C(O)O[C@H](CO)[C@H](O)[C@@H]1O (some centres unmarked) [N-acetyl-galactosamine]	can specifically bind	–	–	–	–	–	–	can bind	enhanced as the amount of EV71 was increased	–	–	–	–	partially inhibited	enhance the production of EV71	enhance the production of EV71

Reference: patent publication US20120171660A1, “METHOD FOR SCREENING AND PURIFYING ENTEROVIRUS, METHOD FOR MASS-PRODUCING ENTEROVIRUS, AND METHOD FOR MANUFACTURING ENTEROVIRUS VACCINE” (priority 2011, published 2012)
